These results are taken from US4593090A, “Novel nitrosourea compounds, method for preparing same, and pharmaceutical composition containing same” (Gogo Kimura, priority 1981, dated 1986).

The subject of one series is Leukemia L1210. Nature of the series: Activity against Leukemia L1210, intraperitoneal, increase in life span of mice. In kind it is in vivo, female mice (BDF1 family). To be noted: for ED (maximum ILS) / ED30: Mus musculus, L1210, ip, ip once a day for 5 successive days; for ED (maximum ILS): daily dosage giving maximum increase of life span, read-out: O.D. (optimum dosage); for ED30: daily dosage increasing average survival days by 30%, read-out: ILS30; for Survivors after 60 days / Max. ILS % / Therapeutic ratio TR: ip; for Survivors after 60 days: 6-membered group; for Max. ILS %: 60-day observation, versus control; for Therapeutic ratio TR: O.D./ILS30. The method, boiled down: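 Mice (female BDF1, 20–23 g) carrying 1×10^5 ip-implanted L1210 cells were given daily ip or oral doses for 5 days; ILS% came from mean survival over 60 days relative to controls.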

A short description of series [1]: Acute toxicity (LD50, Behrens-Karber method). In kind it is in vivo, ICR mice. To be noted: mouse, in vivo, ip, mortality during 30 days. The procedure:
Test compounds, dissolved or suspended in 0.5% aqueous CMC, were each intraperitoneally administered to ICR mice in a dose of 0.1 ml per 10 g body weight. LD50 (mg/kg) value of each test compound was calculated from the mortality of mice during 30 days by the Behrens-Karber method.

Each structure is given as a SMILES string.

For `COCCN(C(=O)N(CCCl)N=O)[C@@H]1[C@@H](OCCc2ccccc2)O[C@H](CO)[C@@H](O)[C@H]1O` [Compound 142, 3-(2-methoxyethyl)-3-(phenyl-β-ethyl α-D-altropyranose-2-yl)-1-(2-chloroethyl)-1-nitrosourea], in the series with Leukemia L1210, the ED (maximum ILS) came to 160 mg/kg, the ED30 worked out at 4.16 mg/kg, the “Survivors after 60 days” value was 3/6 and the “Max. ILS %” value is above 350%. Besides, the “Therapeutic ratio TR” value with Leukemia L1210 is reported as 38.5. This compound also registered a median lethal dose (LD50) at 720 h in series [1] of 500 mg/kg.

As to `O=NN(CCCl)C(=O)N(CC1CCCO1)[C@H]1[C@H](O)[C@@H](OCCc2ccccc2)O[C@H](CO)[C@H]1O` (stereo partly drawn) [Compound 143, 3-tetrahydrofurfuryl-3-(phenyl-β-ethyl α-D-altropyranose-3-yl)-1-(2-chloroethyl)-1-nitrosourea], in the series on Leukemia L1210, the ED (maximum ILS) came out at 150 mg/kg, the ED30 was determined as 3.52 mg/kg, the “Survivors after 60 days” value was 4/6 and the “Max. ILS %” value was above 425%. In addition, in the series with Leukemia L1210, the “Therapeutic ratio TR” value is 42.6. In series [1], the LD50 at 720 h amounted to 460 mg/kg.

For the compound `COCC(C)O[C@H]1O[C@H](CN(CC(C)C)C(=O)N(CCCl)N=O)[C@@H](O)[C@@H](O)[C@@H]1O` (stereo partly drawn) [Compound 144, 3-isobutyl-3-(1-methyl-2-methoxyethyl α-D-altropyranose-6-yl)-1-(2-chloroethyl)-1-nitrosourea], in the series on Leukemia L1210, the ED (maximum ILS) turned out to be 160 mg/kg, the ED30 is 2.8 mg/kg, the “Survivors after 60 days” value is recorded as 6/6 and the “Max. ILS %” value is given as above 700%. Moreover, in the series on Leukemia L1210, the “Therapeutic ratio TR” value is recorded as 57.1. Further, the LD50 at 720 h in series [1] came to 580 mg/kg.

In the case of `CCCN(C(=O)N(CCCl)N=O)[C@@H]1[C@@H](O)[C@@H](OC2CCCCC2)OC[C@H]1O` [Compound 147, 3-n-propyl-3-(cyclohexyl α-D-xylopyranose-3-yl)-1-(2-chloroethyl)-1-nitrosourea], in the series with Leukemia L1210, the ED (maximum ILS) was determined as 150 mg/kg, the ED30 stood at 3.91 mg/kg, the “Survivors after 60 days” value is given as 3/6 and the “Max. ILS %” value is given as above 350%. Also, in the series on Leukemia L1210, the “Therapeutic ratio TR” value is reported as 38.4. Moreover, the LD50 at 720 h in series [1] was found to be 430 mg/kg.

Consider `CC(C)N(C(=O)N(CCCl)N=O)[C@@H]1CO[C@H](OC2CCCCC2)[C@H](O)[C@H]1O` [Compound 148, 3-isopropyl-3-(cyclohexyl α-D-xylopyranose-4-yl)-1-(2-chloroethyl)-1-nitrosourea], for which, in the series on Leukemia L1210, the ED (maximum ILS) worked out at 160 mg/kg, the ED30 worked out at 3.81 mg/kg, the “Survivors after 60 days” value was 4/6 and the “Max. ILS %” value is above 425%. Moreover, the “Therapeutic ratio TR” value with Leukemia L1210 turned out to be 42.0. The LD50 at 720 h in series [1] amounted to 480 mg/kg.

In the case of `CC(C)CN(C(=O)N(CCCl)N=O)[C@@H]1[C@@H](O)[C@@H](OC2CCCCC2)OC[C@H]1O` [Compound 150, 3-isobutyl-3-(cyclohexyl α-D-xylopyranose-3-yl)-1-(2-chloroethyl)-1-nitrosourea], in the series on Leukemia L1210, the ED (maximum ILS) stood at 150 mg/kg, the ED30 amounted to 3.12 mg/kg, the “Survivors after 60 days” value is given as 4/6 and the “Max. ILS %” value is given as above 420%. Besides, the “Therapeutic ratio TR” value in the series on Leukemia L1210 is on record as 48.1. In series [1], this compound had an LD50 at 720 h of 505 mg/kg.

Take `CC(C)CN(C(=O)N(CCCl)N=O)[C@@H]1CO[C@H](OC2CCCCC2)[C@H](O)[C@H]1O` [Compound 151, 3-isobutyl-3-(cyclohexyl α-D-xylopyranose-4-yl)-1-(2-chloroethyl)-1-nitrosourea]: in the series with Leukemia L1210, the ED (maximum ILS) was 150 mg/kg, the ED30 was found to be 3.21 mg/kg, the “Survivors after 60 days” value is 4/6 and the “Max. ILS %” value is above 425%. Besides, the “Therapeutic ratio TR” value with Leukemia L1210 is listed as 46.7. The median lethal dose (LD50) at 720 h in series [1] is 490 mg/kg.

With `CC(C)CO[C@@H]1OC[C@H](N(C(=O)N(CCCl)N=O)C2CCCCC2)[C@H](O)[C@H]1O` [Compound 152], in the series on Leukemia L1210, the ED (maximum ILS) worked out at 170 mg/kg, the ED30 was determined as 4.31 mg/kg, the “Survivors after 60 days” value was 4/6 and the “Max. ILS %” value is above 425%. In the series with Leukemia L1210, the “Therapeutic ratio TR” value stood at 43.1. In series [1], the LD50 at 720 h was 550 mg/kg.

As for `COCCCN(C(=O)N(CCCl)N=O)[C@H]1CO[C@@H](OCC(C)C)[C@H](O)[C@H]1O` [Compound 154, 3-(3-methoxy-n-propyl)-3-(isobutyl α-L-arabinopyranose-4-yl)-1-(2-chloroethyl)-1-nitrosourea], in the series with Leukemia L1210, the ED (maximum ILS) came to 160 mg/kg, the ED30 came out at 2.85 mg/kg, the “Survivors after 60 days” value was 5/6 and the “Max. ILS %” value is on record as above 620%. Moreover, the “Therapeutic ratio TR” value in the series with Leukemia L1210 is listed as 56.1. Also, the LD50 at 720 h in series [1] was found to be 500 mg/kg.

Take `COCCN(C(=O)N(CCCl)N=O)[C@H]1[C@H](OC2CCCCC2)OC[C@H](O)[C@@H]1O` [Compound 155, 3-(2-methoxyethyl)-3-(cyclohexyl α-L-arabinopyranose-2-yl)-1-(2-chloroethyl)-1-nitrosourea]: in the series with Leukemia L1210, the ED (maximum ILS) worked out at 160 mg/kg, the ED30 turned out to be 2.64 mg/kg, the “Survivors after 60 days” value is on record as 6/6 and the “Max. ILS %” value was above 700%. In the series with Leukemia L1210, the “Therapeutic ratio TR” value is recorded as 60.6. The LD50 at 720 h in series [1] came to 520 mg/kg.

In the case of `CCC(C)O[C@@H]1OC[C@H](O)[C@H](O)[C@H]1N(CCCOC)C(=O)N(CCCl)N=O` (stereo partly drawn) [Compound 158, 3-(3-methoxy-n-propyl)-3-(sec-butyl α-L-arabinopyranose-2-yl)-1-(2-chloroethyl)-1-nitrosourea], in the series with Leukemia L1210, the ED (maximum ILS) worked out at 170 mg/kg, the ED30 was 3.21 mg/kg, the “Survivors after 60 days” value is recorded as 6/6 and the “Max. ILS %” value is given as above 700%. Moreover, the “Therapeutic ratio TR” value with Leukemia L1210 is 53.0. The compound also had a 50% lethal dose (LD50) at 720 h in series [1] of 530 mg/kg.

`COCCCN(C(=O)N(CCCl)N=O)[C@@H]1CO[C@H](OC2CCCCC2)[C@@H](O)[C@@H]1O` [Compound 160, 3-(3-methoxy-n-propyl)-3-(cyclohexyl α-D-arabinopyranose-4-yl)-1-(2-chloroethyl)-1-nitrosourea]: in the series with Leukemia L1210, the ED (maximum ILS) is 180 mg/kg, the ED30 amounted to 3.1 mg/kg, the “Survivors after 60 days” value is 6/6 and the “Max. ILS %” value is above 700%. In the series on Leukemia L1210, the “Therapeutic ratio TR” value amounted to 58.1. Further, the 50% lethal dose (LD50) at 720 h in series [1] came out at 550 mg/kg.

On to `CC(C)CN(C(=O)N(CCCl)N=O)[C@@H]1[C@H](OC2CCCCC2)O[C@H](CO)[C@H]1O` [Compound 162, 3-isobutyl-3-(cyclohexyl β-D-arabinofuranose-2-yl)-1-(2-chloroethyl)-1-nitrosourea], for which, in the series with Leukemia L1210, the ED (maximum ILS) was 160 mg/kg, the ED30 came out at 5.63 mg/kg, the “Survivors after 60 days” value is reported as 3/6 and the “Max. ILS %” value was above 350%. Moreover, the “Therapeutic ratio TR” value in the series on Leukemia L1210 is recorded as 28.4. In series [1], the LD50 at 720 h worked out at 500 mg/kg.

`CC(C)CN(C(=O)N(CCCl)N=O)[C@H]1[C@H](O)[C@H](OC2CCCCC2)O[C@@H]1CO` [Compound 163, 3-isobutyl-3-(cyclohexyl β-D-arabinofuranose-3-yl)-1-(2-chloroethyl)-1-nitrosourea]: in the series on Leukemia L1210, the ED (maximum ILS) came to 160 mg/kg, the ED30 was determined as 4.91 mg/kg, the “Survivors after 60 days” value is 3/6 and the “Max. ILS %” value is recorded as above 365%. For the same compound, the “Therapeutic ratio TR” value with Leukemia L1210 is listed as 32.6. This compound also gave an LD50 at 720 h in series [1] of 550 mg/kg.

In the case of `COCCCN(C(=O)N(CCCl)N=O)[C@@H]1[C@@H](O)[C@@H](OCC(C)C)O[C@@H]1CO` [Compound 165, 3-(3-methoxy-n-propyl)-3-(isobutyl α-D-xylofuranose-3-yl)-1-(2-chloroethyl)-1-nitrosourea], in the series with Leukemia L1210, the ED (maximum ILS) was found to be 160 mg/kg, the ED30 was 5.57 mg/kg, the “Survivors after 60 days” value was 3/6 and the “Max. ILS %” value is above 340%. For the same compound, in the series with Leukemia L1210, the “Therapeutic ratio TR” value stood at 28.7. Further, in series [1], the LD50 at 720 h turned out to be 480 mg/kg.

For `CC(C)CN(C(=O)N(CCCl)N=O)[C@H]1[C@@H](OC2CCCCC2)O[C@H](CO)[C@@H]1O` [Compound 166, 3-isobutyl-3-(cyclohexyl α-D-xylofuranose-2-yl)-1-(2-chloroethyl)-1-nitrosourea], in the series on Leukemia L1210, the ED (maximum ILS) was found to be 150 mg/kg, the ED30 was 4.75 mg/kg, the “Survivors after 60 days” value is 3/6 and the “Max. ILS %” value is reported as above 345%. The “Therapeutic ratio TR” value in the series with Leukemia L1210 amounted to 31.6. The same compound returned an LD50 at 720 h in series [1] of 450 mg/kg.

Consider `COCCCO[C@@H]1O[C@H](CN(CCCOC)C(=O)N(CCCl)N=O)[C@@H](O)[C@H]1O` [Compound 168, 3-(3-methoxy-n-propyl)-3-(3-methoxy-n-propyl β-D-ribofuranose-5-yl)-1-(2-chloroethyl)-1-nitrosourea], for which, in the series with Leukemia L1210, the ED (maximum ILS) was 160 mg/kg, the ED30 turned out to be 3.3 mg/kg, the “Survivors after 60 days” value is 4/6 and the “Max. ILS %” value is above 425%. Further, the “Therapeutic ratio TR” value in the series on Leukemia L1210 came to 48.5. This compound also yielded an LD50 at 720 h in series [1] of 500 mg/kg.

Turning to `CC(C)CN(C[C@H]1O[C@@H](OC2CCCCC2)[C@H](O)[C@@H]1O)C(=O)N(CCCl)N=O` [Compound 169, 3-isobutyl-3-(cyclohexyl β-D-ribofuranose-5-yl)-1-(2-chloroethyl)-1-nitrosourea], in the series with Leukemia L1210, the ED (maximum ILS) is 180 mg/kg, the ED30 was 3.9 mg/kg, the “Survivors after 60 days” value is recorded as 4/6 and the “Max. ILS %” value is above 420%. Further, in the series with Leukemia L1210, the “Therapeutic ratio TR” value is recorded as 46.2. For the same compound, the LD50 at 720 h in series [1] stood at 550 mg/kg.
